The target of this assay is T1, FoxM1 (Homo sapiens, UniProt Q08050).
T1 sequence (Q08050 222-360 limits assumed): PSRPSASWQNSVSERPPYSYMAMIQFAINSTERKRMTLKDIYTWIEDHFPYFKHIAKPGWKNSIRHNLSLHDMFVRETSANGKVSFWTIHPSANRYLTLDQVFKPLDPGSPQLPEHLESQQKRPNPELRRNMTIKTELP
Description: TR-FRET FoxM1-DBD/biotinylated dsDNA binding inhibition assay. In general terms: TR-FRET usually uses a lanthanide donor and a delayed reading to cut background.

Each structure is given as a SMILES string.

For the compound `CC(C)C1=C[C@@]23CC[C@@H]4[C@](C)(CCC[C@@]4(C)C(=O)O)[C@H]2C[C@@H]1[C@H]1C(=O)C=C(Cl)C(=O)[C@H]13` [CDI, (4aR,4bS,6aR,7R,10aR,10bR,12R,12aR)-3-Chloro-4,4a,5,6,6a,7,8,9,10,10a,10b,11,12,12a-tetradecahydro-7,10a-dimethyl-13-(1-methylethyl)-1,4-dioxo-1H-4b,12-ethenochrysene-7-carboxylic acid], the IC50 (commonly the point on the concentration scale where inhibition reaches its midpoint) worked out at 4.9 ± 1.5 µM.

The compound `Nc1c(C(=O)Nc2ccc(F)cc2)sc2nc(-c3cccs3)cc(C(F)(F)F)c12` [FDI-6] had an IC50 of 3.7 ± 0.9 µM.

Source of the values: article PMC9313426, “CDI Exerts Anti-Tumor Effects by Blocking the FoxM1-DNA Interaction” (Biomedicines, 2022).
